# Test results as given in US7186534B1 (The Trustees of Columbia University in the City of New York, priority 1997, dated 2007).
# Read-outs that look alike come from different tables or passages of the source.
# Legend:
# [1] = target: T1, mouse 9cRDH (Mus musculus, UniProt O55240); experiment: Inhibition of recombinant mouse 9cRDH activity (9-cis-retinol oxidation, CHO cell homogenate, HPLC); assay type: biochemical; conditions: for inhibition of mouse 9cRDH activity (in words): 10 μM 9-cis-retinol
# T1 sequence (O55240 1-318): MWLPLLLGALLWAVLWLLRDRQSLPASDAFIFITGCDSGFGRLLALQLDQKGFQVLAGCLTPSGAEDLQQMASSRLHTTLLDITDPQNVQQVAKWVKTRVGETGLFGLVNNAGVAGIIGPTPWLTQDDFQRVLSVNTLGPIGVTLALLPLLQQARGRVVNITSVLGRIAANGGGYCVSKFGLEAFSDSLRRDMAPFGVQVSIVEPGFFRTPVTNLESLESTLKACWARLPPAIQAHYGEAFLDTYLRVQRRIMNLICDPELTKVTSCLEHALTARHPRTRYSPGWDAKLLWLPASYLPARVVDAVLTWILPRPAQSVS
# [2] = Isomerization of retinoic acids in the human 9-cis retinol dehydrogenase assay; assay type: physicochemical; conditions: for 9-cis isomer present at end of assay / 13-cis isomer present at end of assay / all-trans isomer present at end of assay: 37° C., 15 minutes; for final concentration of 13-cis-retinoic acid formed by isomerization: 10 μM retinoic acid, end of the 15 minute assay
# Method: Inhibition Studies of 9cRDH Activity. For the inhibition experiments, each potential inhibitor tested was added to the recombinant 9cRDH in 5 μl of ethanol in the presence of 2 mM NAD^+, 10 mM Hepes, pH 8.0, containing 150 mM KCl, 1 mM EDTA, and 50 μg phosphotidyl choline (assay incubation mixture lacking the retinoid substrate). This mixture was allowed to sit on ice for 5 minutes prior to adding substrate. Upon addition of 10 μM 9-cis-retinol (final concentration), the mixture was incubated for 15 minutes at […] with agitation and extracted as described above for the standard enzyme assay. HPLC Procedures. Stereoisomers of both retinol and retinaldehyde were separated on a 4.6×15-mm Supelco (Belefonte, Pa.) LC-SI Supelcosil™ column using hexane:ethyl acetate:butanol (96.9:3:0.1 v/v) as the mobile phase flowing at 0.8 ml/min. A silica guard column (Supelco) preceded the running column. Retinols and retinaldehydes were detected using a Waters 996 Photodiode array detector at absorbances of 325 and 365 nm, respectively. Retention times for all-trans-, 9-cis-, 11-cis-, and 13-cis-retinols and corresponding retinaldehydes were established using the purified compounds obtained as described above. Quantities of each retinol and retinaldehyde isomer present in extracts were determined by comparisons of the integrated areas under the HPLC peaks with a standard curve constructed relating integrated peak area with known masses of each retinoid isomer. The concentration of each retinoid isomer were determined by UV-visible spectrophotometry using published extinction coefficients for each retinol, retinaldehyde or retinoic acid isomer (25).
# To test this possibility, the degree of isomerization of retinoic acid which occurs under the assay conditions was measured.
# [3] = target: T2, human 9-cis retinol dehydrogenase (9cRDH) (Homo sapiens, UniProt Q92781); experiment: Inhibition of recombinant human 9cRDH activity (9-cis-retinol oxidation, CHO cell homogenate, HPLC); assay type: biochemical
# T2 sequence (Q92781 1-318): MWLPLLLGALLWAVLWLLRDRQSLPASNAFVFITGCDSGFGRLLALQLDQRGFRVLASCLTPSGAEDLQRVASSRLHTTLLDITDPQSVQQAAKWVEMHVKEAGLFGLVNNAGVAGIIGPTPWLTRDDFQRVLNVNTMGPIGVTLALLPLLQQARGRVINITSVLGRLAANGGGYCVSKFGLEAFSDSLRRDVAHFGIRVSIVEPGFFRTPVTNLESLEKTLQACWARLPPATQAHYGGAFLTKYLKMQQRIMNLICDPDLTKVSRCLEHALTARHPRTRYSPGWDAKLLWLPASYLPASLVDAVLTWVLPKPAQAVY
# [4] = target: rat liver and human prostate 17β-hydroxysteroid dehydrogenase (identical to retinol dehydrogenase, type I); conditions: cited from earlier work
# [5] = tested on: visual cycle; conditions: administration to frogs; cited from earlier work
# [6] = target: T3, human 9cRDH (Homo sapiens, UniProt Q92781); experiment: Hydroxysteroid oxidation/reduction by human 9cRDH (TLC); assay type: biochemical; conditions: 37° C., 1.5 h; TLC detection limit approximately 3 pmol/min/mg protein
# T3 sequence (Q92781 1-318): T2 sequence (Q92781 1-318)
# Method: (§1) To investigate whether human or mouse 9cRDH will catalyze oxidations or reductions of 3α-hydroxy-, 11β-hydroxy- or 17β-hydroxysteroids, these steroids were incubated at 37° C. for 1.5 h in the assay media described above for assessing oxidation/reduction of 9-cis-retinol/9-cis-retinaldehyde. The Hepes NAD^+-containing assay buffer described above was employed to assess hydroxysteroid oxidation and to assess hydroxysteroid reduction the acetate buffer containing NADH (or NADPH) assay buffer (see above) was employed. Immediately following incubation, the steroids were extracted as described above for retinoids. The final hexane extract was evaporated to near dryness and this was spotted onto a silica high performance TLC plate (Whatman Inc., Clifton, N.J.) and developed in hexane/diethyl ether/acetic acid (70:30:1, v/v) or ethyl acetate/chloroform (25:75, v/v). Steroids were visualized by charring after treatment of the TLC plates with an areosol of 10% (v/v) H2SO4 in methanol.
# (§2) Biswas and Russell (32) have reported that rat liver all-trans-retinol dehydrogenase type I also uses several 3α-hydroxy- and 17β-hydroxysteroids as substrates. Chai et al. (18) also reported that hydroxysteroids are substrates for mouse liver cis-retinol dehydrogenase. Since human 9cRDH is approximately 50% identical to the rat liver enzymes and shares approximately 63% homology to mouse liver cis-retinol dehydrogenase, next investigated was whether these steroids might also be substrates for 9cRDH. To test this possibility it was determined whether human or mouse 9cRDH would catalyze oxidation of 5α-androstan-3α, 17β-diol, androsterone, testosterone or dihydrotestosterone to corresponding ketone products. Also investigated was whether human and/or mouse 9cRDH could catalyze reduction of the corresponding ketones. […] It is estimate, based on the lower limits for hydroxysteroid detection by TLC, that it would be possible to detect rates of hydroxysteroid oxidation as low as approximately 3 pmol/min/mg protein. This rate of hydroxysteroid oxidation is at least 2-orders of magnitude lower than Vmax values reported by Biswas and Russell (32) and Chai et al. (18) for oxidation of hydroxysteroids in their studies of enzymes that are able to oxidize both retinol and hydroxysteroids.
# [7] = target: T1, mouse 9cRDH; experiment: Hydroxysteroid oxidation/reduction by mouse 9cRDH (TLC); assay type: biochemical; conditions: 37° C., 1.5 h; TLC detection limit approximately 3 pmol/min/mg protein
# Method: as §1, §2
# [8] = target: human alcohol dehydrogenase type IV (Homo sapiens, UniProt P40394); conditions: cited from earlier work
# [9] = animals and humans receiving 13-cis-retinoic acid pharmacologically; cited from earlier work
# [10] = 1 μM 13-cis Retinoic Acid at start
# [11] = 10 μM steroid, equimolar to substrate, forward (retinol oxidation) or reverse (retinaldehyde reduction) direction
# human alcohol dehydrogenase type IV, sequence (P40394 whole entry): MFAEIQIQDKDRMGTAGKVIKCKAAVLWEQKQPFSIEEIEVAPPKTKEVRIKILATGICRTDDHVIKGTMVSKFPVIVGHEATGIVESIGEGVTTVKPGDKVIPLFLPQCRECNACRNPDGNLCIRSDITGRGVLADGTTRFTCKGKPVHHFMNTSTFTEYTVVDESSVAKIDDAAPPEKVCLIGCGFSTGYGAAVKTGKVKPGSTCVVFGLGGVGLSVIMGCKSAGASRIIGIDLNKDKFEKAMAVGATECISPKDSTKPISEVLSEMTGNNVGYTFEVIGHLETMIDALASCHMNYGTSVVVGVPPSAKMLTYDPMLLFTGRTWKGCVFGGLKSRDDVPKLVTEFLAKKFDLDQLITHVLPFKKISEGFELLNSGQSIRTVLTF
smiles,measurement,setting,value
"CC1=C(/C=C/C(C)=C\C=C\C(C)=C\C(=O)O)C(C)(C)CCC1 [9-cis Retinoic Acid, 9-cis-retinoic acid]",inhibition of mouse 9cRDH activity (in words),[1],very potent inhibitors
same,9-cis isomer present at end of assay,[2]; 10 μM retinoic acid at start,94.7%
same,13-cis isomer present at end of assay,[2]; 10 μM retinoic acid at start,1.1%
same,all-trans isomer present at end of assay,[2]; 10 μM retinoic acid at start,4.2%
same,13-cis isomer present at end of assay,"[2]; 10 μM retinoic acid at start, listed as 9-cis-retinoic acid",~1.1%
same,final concentration of 13-cis-retinoic acid formed by isomerization,[2],approximately 0.1 μM
same,times (fold) less potent than 13-cis retinoic acid as inhibitor of 9cRDH,[3],18
same,inhibition of human 9cRDH activity (in words),"[3]; 10 μM 9-cis-retinol, listed as 9-cis retinoic acid",potent inhibitors
same,inhibition of human 9cRDH activity (in words),"[3]; 10 μM 9-cis-retinol, listed as 9-cis-retinoic acid",very potent inhibitors
same,inhibition of 9cRDH activity,[3]; 10 μM retinoic acid,81%
same,Ki,[4],400 nM
"CC1=C(/C=C/C(C)=C/C=C/C(C)=C/C(=O)O)C(C)(C)CCC1 [all-trans Retinoic Acid, all-trans-retinoic acid]",inhibition of mouse 9cRDH activity (in words),[1],very potent inhibitors
same,9-cis isomer present at end of assay,[2]; 10 μM retinoic acid at start,0.4%
same,13-cis isomer present at end of assay,[2]; 10 μM retinoic acid at start,0.8%
same,all-trans isomer present at end of assay,[2]; 10 μM retinoic acid at start,98.8%
same,13-cis isomer present at end of assay,"[2]; 10 μM retinoic acid at start, listed as all-trans-retinoic acid",approximately 1%
same,final concentration of 13-cis-retinoic acid formed by isomerization,[2],approximately 0.1 μM
same,times (fold) less potent than 13-cis retinoic acid as inhibitor of 9cRDH,[3],30
same,IC50,"[3]; 10 μM 9-cis-retinol, 15 min, 37° C., CHO cell homogenate, read-out: Estimated inhibitor concentration resulting in 50% inhibition of human 9-cis retinol dehydrogenase activity (ID50)",4600 nM
same,inhibition of human 9cRDH activity (in words),"[3]; 10 μM 9-cis-retinol, listed as all-trans retinoic acid",potent inhibitors
same,inhibition of human 9cRDH activity (in words),"[3]; 10 μM 9-cis-retinol, listed as all-trans-retinoic acid",very potent inhibitors
same,inhibition at 10 µM,[3]; 10 μM retinoic acid,66%
same,block of the visual cycle in vivo (in words),[5],block the visual cycle
C[C@]12CC[C@@H](O)C[C@@H]1CC[C@@H]1[C@@H]2CC[C@]2(C)C(=O)CC[C@@H]12 [androsterone],inhibition of mouse 9cRDH activity by hydroxysteroids,[1],none of these hydroxysteroids inhibited
same,inhibition of human 9cRDH activity by hydroxysteroids,[3],none of these hydroxysteroids inhibited
same,catalysis by human 9cRDH of hydroxysteroid oxidation to ketone products (or reduction of the corresponding ketones),[6],Neither human nor mouse 9cRDH were found to catalyze
same,catalysis by mouse 9cRDH of hydroxysteroid oxidation to ketone products (or reduction of the corresponding ketones),[7],Neither human nor mouse 9cRDH were found to catalyze
"CC1=C(/C=C/C(C)=C/C=C/C(C)=C\C(=O)O)C(C)(C)CCC1 [13-cis Retinoic Acid, 13-cis-retinoic acid]",concentration at which mouse 9cRDH is potently inhibited,[1],0.05 µM
same,inhibition of mouse 9cRDH activity (in words),[1],very potent inhibitors
same,IC50,"[1]; substrate concentration 10 μM, read-out: Inhibitor concentration giving approximately 50% inhibition of m9cRDH activity",~150 nM
same,13-cis isomer present at end of assay,[2]; [10],98.4%
same,all-trans isomer present at end of assay,[2]; [10],1.6%
same,inhibition of purified human alcohol dehydrogenase type IV (in words),[8],in vitro inhibition
same,concentration at which human 9cRDH is potently inhibited,[3],0.05 µM
same,expected inhibition of h9cRDH activity,[3]; 0.1 μM 13-cis-retinoic acid present for the full 15 minute incubation,40–50%
same,inhibition of human 9cRDH activity (in words),"[3]; 10 μM 9-cis-retinol, listed as 13-cis retinoic acid",potent inhibitors
same,inhibition of human 9cRDH activity (in words),"[3]; 10 μM 9-cis-retinol, listed as 13-cis-retinoic acid",very potent inhibitors
same,block of the visual cycle in vivo (in words),[5],block the visual cycle
same,Ki,[4],4000 nM
same,concentrations reached in the blood and tissues,[9],≥ 10 µM
C[C@]12CC[C@H]3[C@@H](CCC4=CC(=O)CC[C@@]43C)[C@@H]1CC[C@@H]2O [testosterone],inhibition of mouse 9cRDH activity by hydroxysteroids,[1]; [11],none of these hydroxysteroids inhibited
same,inhibition of human 9cRDH activity by hydroxysteroids,[3]; [11],none of these hydroxysteroids inhibited
same,catalysis by human 9cRDH of hydroxysteroid oxidation to ketone products (or reduction of the corresponding ketones),[6],Neither human nor mouse 9cRDH were found to catalyze
same,catalysis by mouse 9cRDH of hydroxysteroid oxidation to ketone products (or reduction of the corresponding ketones),[7],Neither human nor mouse 9cRDH were found to catalyze
C[C@]12CCC(=O)C[C@@H]1CC[C@@H]1[C@@H]2CC[C@]2(C)[C@@H](O)CC[C@@H]12 [5α-androstan-17βol-3one],inhibition of mouse 9cRDH activity by hydroxysteroids,[1],none of these hydroxysteroids inhibited
same,inhibition of human 9cRDH activity by hydroxysteroids,[3],none of these hydroxysteroids inhibited
same,catalysis by human 9cRDH of hydroxysteroid oxidation to ketone products (or reduction of the corresponding ketones),[6],Neither human nor mouse 9cRDH were found to catalyze
same,catalysis by mouse 9cRDH of hydroxysteroid oxidation to ketone products (or reduction of the corresponding ketones),[7],Neither human nor mouse 9cRDH were found to catalyze
"C[C@]12CC[C@@H](O)C[C@@H]1CC[C@@H]1[C@@H]2CC[C@]2(C)[C@@H](O)CC[C@@H]12 [5α-androstane-3α, 17βdiol]",inhibition of mouse 9cRDH activity by hydroxysteroids,[1]; [11],none of these hydroxysteroids inhibited
same,inhibition of human 9cRDH activity by hydroxysteroids,[3]; [11],none of these hydroxysteroids inhibited
same,catalysis by human 9cRDH of hydroxysteroid oxidation to ketone products (or reduction of the corresponding ketones),[6],Neither human nor mouse 9cRDH were found to catalyze
same,catalysis by mouse 9cRDH of hydroxysteroid oxidation to ketone products (or reduction of the corresponding ketones),[7],Neither human nor mouse 9cRDH were found to catalyze
